In US20130115256A1, “METHODS FOR TREATING OR PREVENTING VASCULAR GRAFT FAILURE” (priority 2010, published 2013):

Assays:
[1] = tested on: immortalized human pleural mesothelial cells (ATCC CRL-9444); experiment: TNF-α-induced IL-6 expression in mesothelial cells (ELISA); format: cell-based
Text: In order to examine the efficacy of MMI-0100 ([…]; SEQ ID NO: 1) in inhibiting the production of inflammatory cytokines, an inflammatory response was triggered in vitro by applying TNF-α to immortalized human pleural mesothelial cells (ATCC CRL-9444). A mesothelial cell is a cell type that forms a monolayer of specialized pavement-like cells (mesothelium) that lines the body's abdominal cavities and internal organs. The primary function of this layer, the mesothelium, is to provide a slippery, non-adhesive, and protective surface. Mesothelial cells also are involved in transport of fluid and cells across the peritoneal (abdominal) cavities, antigen presentation, inflammation, tissue repair, coagulation, and tumor cell adhesion. It is well known that mesothelial cells play important role in the peritoneal inflammatory response. In response to bacterial products and macrophage-derived inflammatory cytokines (e.g., TNF-α), mesothelial cells produce Interleukin-1 (IL-1), Interleukin-6 (IL-6), and Interleukin-8 (IL-8), thus amplifying the inflammatory signals and recruiting leukocytes into the infected abdominal cavity.
Expression of inflammatory cytokines was induced by applying 1 or 10 ng/ml of TNF-α to cultured mesothelial cells. Briefly, immortalized human pleural mesothelial cells (ATCC CRL-9444) were grown in Medium199 with Earle's BSS, 0.75 mM L-glutamine (Mediatech Inc., Manassas, Va.), 1.25 g/l sodium bicarbonate (Sigma), 3.3 nM epidermal growth factor (EGF) (MBL International, Woburn, Mass.), 40 nM hydrocortisone (Sigma), 870 nM insulin (MBL International), 20 mM HEPES (Sigma), trace elements mixture B (Mediatech Inc., Waltham, Mass.), 10% fetal bovine serum (FBS) (Hyclone), and 1% penicillin/streptomycin (Mediatech Inc., Waltham, Mass.). […] Human mesothelial cells were treated with two different concentrations (1 and 10 ng/mL) of TNF-α for 2, 6, 12, and 24 hours (data not shown). […] Without TNF-α stimulation, mesothelial cells made negligible amounts of IL-6. […] In subsequent experiments designed to determine whether the MMI-0100 peptide ([…]; SEQ ID NO: 1) could reduce TNF-α induced IL-6 expression, both 1 and 10 ng/mL of TNF-α were selected as stimuli. 10 ng/mL of TNF-α is regarded as more physiologically relevant for mesothelial cells.
Prior to cytokine and/or inhibitor treatment, cells were allowed to acclimate in serum-free media consisting of only Medium 199 with Earle's BSS, 0.75 mM L-glutamine, 1.25 g/l sodium bicarbonate, 20 mM HEPES, trace elements mixture B (Mediatech Inc., Waltham, Mass.), and 1% penicillin/streptomycin (Mediatech Inc., Waltham, Mass.) for 24 hours. After the adapting period, cytokines (TNF-α and IL-1β) with or without MMI-0100 peptide or Rottlerin (Tocris Bioscience, Ellisville, Mo.; IC50=5 μM) were added to the media in order to compare the efficacy of MMI-0100 ([…]; SEQ ID NO: 1) with that of Rottlerin. Specifically, serum-starved mesothelial cells were treated with two different concentrations (1000 μM or 3000 μM) of MMI-0100 ([…] (SEQ ID NO: 1)) at three different time points (6 hours, 12 hours, and 24 hours) using two different concentrations of TNF-α (1 ng/ml or 10 ng/ml) or using 1 ng/ml of IL-1β. Average concentration of IL-6 (pg/ml per 10^5 cells) at each time was determined by cytokine-specific ELISA.

[2] = biological target: T1, MKK3 (Homo sapiens, UniProt P46734); experiment: MKK3 kinase activity (data not shown); format: biochemical; settings: concentration that inhibits >95% of MK2
T1 sequence (P46734 1-347): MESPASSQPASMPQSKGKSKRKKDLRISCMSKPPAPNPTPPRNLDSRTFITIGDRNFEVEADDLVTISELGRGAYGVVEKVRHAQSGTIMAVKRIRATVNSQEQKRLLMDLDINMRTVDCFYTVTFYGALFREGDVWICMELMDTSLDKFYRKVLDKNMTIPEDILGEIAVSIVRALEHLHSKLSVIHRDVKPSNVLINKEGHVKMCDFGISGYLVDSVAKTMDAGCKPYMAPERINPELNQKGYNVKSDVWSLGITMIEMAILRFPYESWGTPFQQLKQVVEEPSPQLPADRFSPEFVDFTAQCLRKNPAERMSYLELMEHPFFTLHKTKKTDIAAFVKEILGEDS
Text: A commercial radiometric assay service was used to test the specificity and potency of MMI-0100 ([…]; SEQ ID NO: 1) by measuring its half maximal inhibitory concentrations (IC50). This quantitative assay measures how much MK2 inhibitor (MMI-0100; […] (SEQ ID NO: 1)) is needed to inhibit 50% of a given biological process or component of a process (i.e., an enzyme, cell, or cell receptor). Specifically, in these assays, a positively charged substrate is phosphorylated with a radiolabeled phosphate group from an ATP if the kinase is not inhibited by an inhibitor peptide. The positively charged substrate then is attracted to a negatively charged filter membrane, quantified with a scintillation counter, and compared to a 100% activity control. ATP concentrations within 15 μM of the apparent Km for ATP were chosen since an ATP concentration near the Km may allow for the kinases to have the same relative amount of phosphorylation activity. The individual conditions for each radiometric assay are as follows.
IC50 values for inhibitor peptides were determined using Millipore's IC50 Profiler Express service. The IC50 value was estimated from a 10-point curve of one-half log dilutions. […]

How did the IL-6 expression ([1]; 1 ng/mL TNF-α, MMI-0100 1000 μM or 3000 μM) turn out when YARAAARQARAKALARQLGVAA [MMI-0100] was run?
The IL-6 expression was “reduced IL-6 expression to the levels at or below the untreated baseline”.

And the IL-6 expression ([1]; 10 ng/mL TNF-α, 3000 μM MMI-0100, every time point (6, 12, 24 hours))?
The IL-6 expression was “reduced IL-6 expression to the levels of the untreated baseline”.

What about the IL-6 expression ([1]; 10 ng/mL TNF-α, MMI-0100) of the same sequence?
The IL-6 expression was “still effective”.

And the “reduction in MKK3 activity” value [2]?
The value was “no reduction”.
